As usually defined, the melting point is the temperature, or range, at which the solid turns liquid.

These results are taken from US20110251212A1, “PIPERAZINE DERIVATIVES” (SHIONOGI & CO., LTD., priority 2007, published 2011).

Data set [1] deals with T1, mouse NMDA receptor (NR1 subunit and NR2B subunit co-expressed in HEK293 cells) (Mus musculus, UniProt P35438+Q01097).
T1 construct: expressed in transfected cells; host or cells: HEK293 cells, transient, pcDNA 3.1 plasmids
Description: Expression of NMDA receptor and measurement of Ca ion flow in amount (HEK293 cells, Fluo-3/AM, FDSS3000). In kind it is cell-based. The following applies: Ca ion flow in induced with glutamic acid 20 μM/glycine 2 μM, read-out: Ca2+ 1050. The method, then:
Test Example 2 Expression of NMDA receptor and measurement of Ca ion flow in amount
A complementary DNA (cDNA) of a mouse NMDA receptor subunit was transiently introduced into HEK293 cells and, after one day from introduction, change in a glutamic acid/glycine-induced intracellular Ca amount was measured using a Ca ion reactive fluorescent dye.
HEK293 cells were cultured and passaged using a modified Dulbecco's Eagle medium (DMEM, low glucose).
20,000/well of HEK293 cells were seeded on a 96-well plate, a NR1 subunit and a NR2B subunit of a NMDA receptor incorporated into pcDNA 3.1 plasmid were transiently introduced into cells, and co-expression of subunits was performed. An introduction amount of a DNA was such that the NR1 subunit was 0.025 μg, and the NR2B subunit was 0.075 μg per well. For cells after introduction, cell death was inhibited using 50 μM of a NMDA receptor antagonist MK-801.
For adjusting a test compound and washing cells, Krebs Ringer Hepes buffer (KRH, Ca: 5 mM) was used.
One day after introduction, the NMDA receptor antagonist MK-801 was washed off using the KRH buffer, and a Ca ion indicative fluorescent dye Fluo-3/AM was made to be taken into cells. Flow in of a Ca ion was induced with glutamic acid 20 μM/glycine 2 μM. Change in a fluorescence amount due to intracellular Ca ion flow in was measured at excitation 480 nm using a fluorescence imaging system FDSS3000.
From a measured value of the test compound, a Ca ion flow in inhibitory rate (%) was obtained by the following equation, and a dose at which flow in is 50% inhibited (IC50) was calculated.
Ca ion flow in inhibitory rate(%)=100−[(fluorescence amount in presence of test compound−background fluorescence amount)/(total fluorescence amount[…]background fluorescence amount)]×100

For data set [2], the target named is T2, NMDA Receptor (NR1/NR2B Receptor) (Rattus norvegicus, UniProt P35439+Q00960).
T2 construct: this was used as a membrane specimen in an experiment; from tissue; host or cells: rat cerebral cortex membranes
T2 sequence (Q00960 27-1482, other chains not shown): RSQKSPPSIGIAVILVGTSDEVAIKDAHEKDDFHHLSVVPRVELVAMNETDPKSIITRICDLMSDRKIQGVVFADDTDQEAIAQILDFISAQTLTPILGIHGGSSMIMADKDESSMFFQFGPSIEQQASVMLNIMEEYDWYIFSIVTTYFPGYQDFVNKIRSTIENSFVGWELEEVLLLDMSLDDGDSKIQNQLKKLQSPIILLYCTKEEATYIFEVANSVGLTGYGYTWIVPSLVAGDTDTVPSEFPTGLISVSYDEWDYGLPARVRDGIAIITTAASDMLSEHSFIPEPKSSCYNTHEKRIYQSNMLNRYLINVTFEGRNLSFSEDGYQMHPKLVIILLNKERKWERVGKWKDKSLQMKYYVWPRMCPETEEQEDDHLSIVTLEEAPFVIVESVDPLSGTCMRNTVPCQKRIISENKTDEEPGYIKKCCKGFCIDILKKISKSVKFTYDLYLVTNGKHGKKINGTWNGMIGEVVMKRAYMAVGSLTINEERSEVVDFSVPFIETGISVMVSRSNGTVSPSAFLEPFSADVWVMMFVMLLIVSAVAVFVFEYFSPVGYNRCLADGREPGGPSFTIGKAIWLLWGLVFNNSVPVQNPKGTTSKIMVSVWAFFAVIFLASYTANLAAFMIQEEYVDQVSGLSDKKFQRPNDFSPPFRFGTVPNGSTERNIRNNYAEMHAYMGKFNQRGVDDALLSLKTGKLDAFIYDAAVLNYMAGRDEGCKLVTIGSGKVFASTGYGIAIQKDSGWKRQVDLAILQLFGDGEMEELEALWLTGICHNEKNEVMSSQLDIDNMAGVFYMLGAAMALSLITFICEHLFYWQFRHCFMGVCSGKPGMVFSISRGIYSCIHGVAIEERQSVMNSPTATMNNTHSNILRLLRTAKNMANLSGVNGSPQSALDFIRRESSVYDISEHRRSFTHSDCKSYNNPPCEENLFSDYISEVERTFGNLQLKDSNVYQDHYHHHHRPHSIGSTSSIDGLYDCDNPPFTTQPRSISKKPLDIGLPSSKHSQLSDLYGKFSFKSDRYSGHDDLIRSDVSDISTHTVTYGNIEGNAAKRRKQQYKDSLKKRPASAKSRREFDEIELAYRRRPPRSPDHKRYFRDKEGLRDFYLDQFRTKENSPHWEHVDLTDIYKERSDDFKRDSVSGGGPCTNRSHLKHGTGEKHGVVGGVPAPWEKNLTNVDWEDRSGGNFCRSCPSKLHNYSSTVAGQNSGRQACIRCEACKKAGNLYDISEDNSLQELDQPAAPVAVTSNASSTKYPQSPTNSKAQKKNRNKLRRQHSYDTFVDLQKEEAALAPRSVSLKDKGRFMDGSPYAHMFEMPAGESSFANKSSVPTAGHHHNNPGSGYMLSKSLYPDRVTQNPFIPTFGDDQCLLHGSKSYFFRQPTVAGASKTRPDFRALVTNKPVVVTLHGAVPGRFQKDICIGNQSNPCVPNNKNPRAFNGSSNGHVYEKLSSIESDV
Description: Experiment of binding to NMDA receptor (NR1/NR2B receptor), [3H]-Ifenprodil competition, rat cerebral cortex membrane. Conditions: [3H]-Ifenprodil 5 nM, GBR-12909 3 μM, ice temperature 120 minutes. The method, then:
Using Ifenprodil which is a NR1/NR2B subtype receptor-specific antagonist as a ligand, an experiment of receptor competition with a test compound was performed.
A male Slc:Wistar rat was used as an animal, a decapitated brain was isolated, and cerebral cortex was fractionated. The cerebral cortex was homogenized with a 20-fold amount of an ice-cooled 50 mM Tris/HCl buffer (pH 7.4), and centrifuged at 4° C. and 27,500×g for 10 minutes. The resulting precipitate was suspended in the same buffer, and the suspension was centrifuged again. This procedure was repeated three times, and the resulting precipitate was suspended in a buffer, and stored at −80° C. Immediately before an experiment, the frozen suspension was thawed at room temperature, and centrifuged at 4° C. and 27,500×g for 10 minutes, and the resulting precipitate was suspended in a buffer. The suspension was further diluted 10-fold with a buffer, and this was used as a membrane specimen in an experiment.
In a binding experiment, to 470 μl of the membrane specimen were added 10 μl of different concentrations of a test compound, 10 μl of a labeled ligand [3H]-Ifenprodil and 10 μl of GBR-12909, and this was incubated at an ice temperature for 120 minutes. A concentration of [3H]-Ifenprodil of the labeled ligand was finally 5 nM, and a concentration of GBR-12909 was finally 3 μM. For measuring a total binding amount, DMSO as a solvent was used and, for measuring a non-specific binding amount, 100 μM of Ifenprodil was used. In addition, GBR-12909 was added in order to block binding of [3H]-Ifenprodil to a non-polyamine-sensitive site. After incubation, a bound body and a free body were separated using a Whatman GF/C filter (manufactured by Whatman), and the filter was washed with 2.5 ml of an ice-cooled buffer four times. The filter was immersed in a liquid scintillation (Clear-sol I, manufactured by Nacalai tesque) in a vial bottle, and radioactivity (dpm) was measured with a liquid scintillation counter. From a measured value, a binding inhibition rate (%) was obtained by the following equation, and a dose at which binding is inhibited 50% (IC50) was calculated. A formula of GBR-12909 (Vanoxerine) is shown below.
Binding inhibition rate(%)=100−[(binding amount in presence of test compound−non-specific amount)/(total binding amount−non-specific binding amount)]×100

T1 sequence (Q01097 27-1482, other chains not shown): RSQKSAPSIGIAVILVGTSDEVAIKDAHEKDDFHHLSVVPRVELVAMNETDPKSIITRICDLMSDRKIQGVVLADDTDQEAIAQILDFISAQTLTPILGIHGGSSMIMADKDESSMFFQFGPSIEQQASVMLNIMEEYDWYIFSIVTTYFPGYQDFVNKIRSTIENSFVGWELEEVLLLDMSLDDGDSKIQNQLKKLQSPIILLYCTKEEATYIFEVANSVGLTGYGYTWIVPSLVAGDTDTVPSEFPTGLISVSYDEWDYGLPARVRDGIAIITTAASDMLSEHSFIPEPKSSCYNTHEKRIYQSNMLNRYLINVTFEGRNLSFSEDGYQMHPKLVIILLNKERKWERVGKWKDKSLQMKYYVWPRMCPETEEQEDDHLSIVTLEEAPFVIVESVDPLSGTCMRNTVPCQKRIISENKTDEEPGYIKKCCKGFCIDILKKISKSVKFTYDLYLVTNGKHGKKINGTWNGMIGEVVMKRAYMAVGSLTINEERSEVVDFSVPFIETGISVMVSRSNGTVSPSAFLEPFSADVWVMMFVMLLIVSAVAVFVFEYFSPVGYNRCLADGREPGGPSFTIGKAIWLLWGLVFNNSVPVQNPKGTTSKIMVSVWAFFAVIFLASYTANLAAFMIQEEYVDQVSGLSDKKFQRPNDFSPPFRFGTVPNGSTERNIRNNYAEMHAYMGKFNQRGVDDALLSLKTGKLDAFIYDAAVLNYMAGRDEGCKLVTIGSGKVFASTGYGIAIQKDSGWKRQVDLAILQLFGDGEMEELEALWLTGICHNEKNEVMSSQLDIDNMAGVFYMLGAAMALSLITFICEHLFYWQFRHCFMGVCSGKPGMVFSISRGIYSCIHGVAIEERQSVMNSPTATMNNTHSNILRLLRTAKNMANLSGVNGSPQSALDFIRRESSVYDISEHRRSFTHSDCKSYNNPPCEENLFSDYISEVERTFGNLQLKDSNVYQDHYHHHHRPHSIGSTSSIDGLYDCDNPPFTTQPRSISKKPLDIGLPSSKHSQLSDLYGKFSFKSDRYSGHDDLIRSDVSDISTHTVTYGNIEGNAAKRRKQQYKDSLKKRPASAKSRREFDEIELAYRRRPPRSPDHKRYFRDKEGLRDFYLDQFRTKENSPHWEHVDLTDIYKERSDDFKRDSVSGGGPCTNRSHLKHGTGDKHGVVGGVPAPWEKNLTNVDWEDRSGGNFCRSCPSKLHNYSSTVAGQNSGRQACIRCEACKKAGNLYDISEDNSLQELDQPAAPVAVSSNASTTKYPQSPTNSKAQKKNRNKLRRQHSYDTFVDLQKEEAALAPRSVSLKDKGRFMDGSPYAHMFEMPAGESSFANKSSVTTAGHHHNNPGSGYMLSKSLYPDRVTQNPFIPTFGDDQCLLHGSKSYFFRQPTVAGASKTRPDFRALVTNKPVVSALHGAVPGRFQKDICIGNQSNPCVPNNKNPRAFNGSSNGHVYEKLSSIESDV

As to `O=C(CNc1ccc2[nH]c(=O)oc2c1)N1CCN(c2ccc(Cl)c(F)c2)CC1` [Compound I-1], the melting point fell in the range of 136 to 138 °C. Besides, the IC50 in data set [1] worked out at 49 nM. The molecule also displayed an IC50 in data set [2] of 0.149 µM.

For `O=C(CCNc1ccc2[nH]c(=O)oc2c1)N1CCN(c2ccc(Cl)c(F)c2)CC1` [Compound I-2], the melting point was 187 to 189 °C. `O=C(CNc1ccc2[nH]c(=O)oc2c1)N1CCN(c2ccc(F)c(Cl)c2)CC1` [Compound I-3] came in with a melting point of 130 to 132 °C. `CC(Nc1ccc2[nH]c(=O)oc2c1)C(=O)N1CCN(c2ccc(Cl)c(F)c2)CC1` (stereo not drawn) [Compound I-4] yielded a melting point of 223 to 225 °C. `C[C@@H]1CN(c2ccc(F)cc2)C[C@H](C)N1C(=O)C(=O)Nc1ccc2[nH]c(=O)oc2c1` [Compound I-5] gave a melting point of 245 to 246 °C. Consider `C[C@@H]1CN(c2ccc(Cl)c(F)c2)CCN1C(=O)CNc1ccc2[nH]c(=O)oc2c1` [Compound I-6], for which the melting point was in the range of 224 to 226 °C. Moreover, in data set [1], the IC50 is 20 nM. Further, the IC50 in data set [2] turned out to be 0.026 µM. Regarding `COc1c(F)cc(N2CCN(C(=O)CNc3ccc4[nH]c(=O)oc4c3)CC2)cc1F` [Compound I-7], the melting point fell in the range of 194 to 196 °C. Also, the IC50 in data set [1] amounted to 89 nM. As for `Cc1ccc(N2CCN(C(=O)C(=O)Nc3ccc4[nH]c(=O)oc4c3)C[C@H]2C)cc1F` [Compound I-28], the IC50 was found to be 3 nM in data set [1] and 0.068 µM in data set [2]. For `Cc1ccc(N2CCN(C(=O)C(=O)Nc3ccc4[nH]c(=O)oc4c3)C[C@H]2C)cc1` [Compound I-29], in that order: 9 nM and 0.129 µM. Take `COCc1ccc(N2CCN(C(=O)C(=O)Nc3ccc4[nH]c(=O)oc4c3)CC2)cc1F` [Compound I-33]: the IC50 in data set [1] was 26 nM; in data set [2], 0.059 µM. For the molecule `COCc1ccc(N2CCN(C(=O)C(=O)Nc3ccc4[nH]c(=O)oc4c3)[C@H](C)C2)cc1F` [Compound I-34], the IC50 stood at 32 nM in data set [1] and 0.099 µM in data set [2]. For `Cc1ccc(N2CCN(C(=O)C(=O)Nc3ccc4[nH]c(=O)oc4c3)CC2)cc1Cl` [Compound I-35], the IC50 in data set [1] stood at 9 nM; in data set [2], 0.02 µM.

For the molecule `Cc1cc(N2CCN(C(=O)C(=O)Nc3ccc4[nH]c(=O)oc4c3)CC2)ccc1Cl` [Compound I-37], the IC50 in data set [1] is 9 nM; in data set [2], 0.029 µM. Turning to `Cc1ccc(N2CCN(C(=O)C(=O)Nc3ccc4[nH]c(=O)oc4c3)[C@H](C)C2)cc1Cl` [Compound I-38], the IC50 was found to be 7 nM in data set [1] and 0.041 µM in data set [2]. On to `Cc1ccc(N2CCN(C(=O)C(=O)Nc3ccc4[nH]c(=O)oc4c3)C[C@H]2C)cc1Cl` [Compound I-39], for which the values for the IC50 in data set [1] and in data set [2] were 9 nM and 0.08 µM, respectively. In the case of `Cc1cc(N2CCN(C(=O)C(=O)Nc3ccc4[nH]c(=O)oc4c3)[C@H](C)C2)ccc1Cl` [Compound I-40], the melting point fell in the range of 123 to 124 °C. The IC50 in data set [1] is 14 nM. For the same molecule, the IC50 in data set [2] came to 0.04 µM. For `Cc1cc(N2CCN(C(=O)C(=O)Nc3ccc4[nH]c(=O)oc4c3)C[C@H]2C)ccc1Cl` [Compound I-41], the IC50 in data set [1] stood at 5 nM; in data set [2], 0.067 µM. In the same order, the values of `COc1c(F)cc(N2CCN(C(=O)CNc3ccc4[nH]c(=O)oc4c3)C[C@H]2C)cc1F` [Compound I-43] are 21 nM and 0.065 µM. Consider `C[C@@H]1CN(C(=O)C(=O)Nc2ccc3[nH]c(=O)oc3c2)CCN1c1ccc(C(F)(F)F)cc1` [Compound I-50], for which the IC50 in data set [1] was found to be 5 nM; in data set [2], 0.064 µM. In the same order, the values of `CC[C@@H]1CN(C(=O)C(=O)Nc2ccc3[nH]c(=O)oc3c2)CCN1c1ccc(Cl)cc1` [Compound I-51] are 5 nM and 0.09 µM. `CC[C@@H]1CN(c2ccc(Cl)cc2)CCN1C(=O)C(=O)Nc1ccc2[nH]c(=O)oc2c1` [Compound I-52]: the IC50 turned out to be 8 nM in data set [1] and 0.081 µM in data set [2].

For the molecule `C[C@@H]1CN(c2ccc(Cl)cc2)CCN1CC(=O)Nc1ccc2[nH]c(=O)oc2c1` [Compound I-53], the IC50 in data set [1] came out at 33 nM; in data set [2], 0.134 µM. For `C[C@@H]1CN(CC(=O)Nc2ccc3[nH]c(=O)oc3c2)CCN1c1ccc(Cl)c(F)c1` [Compound I-55], the IC50 in data set [1] stood at 4 nM; in data set [2] it was 0.033 µM. With `COc1c(F)cc(N2CCN(CC(=O)Nc3ccc4[nH]c(=O)oc4c3)CC2)cc1F` [Compound I-56], the IC50 in data set [1] stood at 12 nM; in data set [2], 0.044 µM. For `COc1c(F)cc(N2CCN(CC(=O)Nc3ccc4[nH]c(=O)oc4c3)C[C@H]2C)cc1F` [Compound I-57], the results for the IC50 in data set [1] and in data set [2] were 4 nM and 0.056 µM, respectively. For `C[C@@H]1CN(CC(=O)Nc2ccc3[nH]c(=O)oc3c2)CCN1c1ccc(Cl)cc1` [Compound I-59], the IC50 turned out to be 6 nM in data set [1] and 0.042 µM in data set [2]. `Cc1cc(N2CCN(CC(=O)Nc3ccc4[nH]c(=O)oc4c3)C[C@H]2C)ccc1Cl` [Compound I-60]: the IC50 in data set [1] amounted to 10 nM; in data set [2] it was 0.08 µM. Molecule `Cc1cc(N2CCN(C(=O)CNc3ccc4[nH]c(=O)oc4c3)C[C@H]2C)ccc1Cl` [Compound I-63] registered a melting point of 112 to 114 °C. Consider `O=C(NCCN1CCN(c2ccc(Cl)cc2)CC1)c1ccc2[nH]c(=O)oc2c1` [Compound I-65], for which the IC50 in data set [1] worked out at 10 nM; in data set [2], 0.026 µM. `O=C(CN1CCN(c2ccc(Cl)cc2)CC1=O)Nc1ccc2[nH]c(=O)oc2c1` [Compound I-67] yielded a melting point of 223 to 225 °C.
